The source of these data is the NIST ThermoML archive (doi:10.1016/j.fluid.2005.12.004).

For this data set the following is noted: Liquid, Closed cell (Static) method.

Each structure is given as a SMILES string. Numbers after ± are expanded uncertainties.

On to `FC(F)(F)C(F)(F)F` [hexafluoroethane], for which the “vapor or sublimation pressure” value (189.31 K) turned out to be 73.9 ± 4 kPa, the “vapor or sublimation pressure” value (192.63 K) is recorded as 88.5 ± 4 kPa, the “vapor or sublimation pressure” value (247.63 K) worked out at 883 ± 4.8 kPa and the “vapor or sublimation pressure” value (252.8 K) is 1038.2 ± 5 kPa.

The term vapor or sublimation pressure denotes the pressure of vapour in equilibrium with the condensed phase.
